The record followed here is patent publication US20220386606A1, “SPECIFICALLY SUBSTITUTED 3-PHENYL-5-SPIROCYCLOPENTYL-3-PYRROLIN-2-ONES AND THEIR USE AS HERBICIDES” (Bayer Aktiengesellschaft, priority 2019, published 2022).

The subject of experiment [1] is LOLRI. Kind of experiment: Post-emergence herbicidal action against LOLRI. The experiment is classed as in vivo, Lolium rigidum. The settings on record: 80 g/ha, visual assessment about 3 weeks after treatment vs untreated controls. The gist of the method:
(§1)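 Weeds were grown in sandy loam in a greenhouse and treated at the one-leaf stage, 2 to 3 weeks after sowing. WP or EC formulations were sprayed onto green parts at 600 to 800 l/ha water with 0.2% wetting agent. Visual % action versus untreated controls was scored after about 3 weeks.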

Experiment [2] concerns PHBPU. Kind of experiment: Pre-emergence herbicidal action against PHBPU. Conditions: scored visually after 3 weeks, 100% = plants have died, 0% = like control plants. It counts as in vivo. The source says: Seeds of monocotyledonous and dicotyledonous weed plants and crop plants are laid out in sandy loam soil in wood-fiber pots and covered with soil. The compounds of the invention, formulated in the form of wettable powders (WP) or as emulsion concentrates (EC), are then applied to the surface of the covering soil as aqueous suspension or emulsion at a water application rate equating to 600 to 800 L/ha with addition of 0.2% wetting agent.
After the treatment, the pots are placed in a greenhouse and kept under good growth conditions for the trial plants. The damage to the test plants is scored visually after a test period of 3 weeks by comparison with untreated controls (herbicidal activity in percent (%): 100% activity=the plants have died, 0% activity=like control plants).

Experiment [3] has as its system ALOMY. Nature of the experiment: Post-emergence herbicidal action against ALOMY. The experiment is classed as in vivo, Alopecurus myosuroides. Conditions: 80 g/ha, visual assessment after about 3 weeks. The gist of the method: as §1
The test system of experiment [4] is SETVI. Kind of experiment: Post-emergence herbicidal action against SETVI. It counts as in vivo, Setaria viridis. Conditions: 80 g/ha, visual assessment about 3 weeks after treatment vs untreated controls. A digest of the protocol: as §1
Experiment [5] relates to SETVI. Nature of the experiment: Pre-emergence herbicidal action against SETVI. It counts as in vivo, Setaria viridis. Conditions: 320 g/ha, scored visually after 3 weeks vs untreated controls. The gist of the method:
(§2)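 Pots of sandy loam with covered seeds receive a surface application of compound (WP or EC; aqueous, 600 to 800 L/ha, 0.2% wetting agent) before emergence. Under good greenhouse growth conditions, percent damage is judged by eye at 3 weeks against untreated controls.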

Experiment [6] deals with ECHCG. Kind of experiment: Pre-emergence herbicidal action against ECHCG. Conditions: 320 g/ha, scored visually after 3 weeks vs untreated controls. It counts as in vivo, Echinochloa crus-galli. The gist of the method:
as §2

Experiment [7] concerns AVEFA. Kind of experiment: Pre-emergence herbicidal action against AVEFA. The settings on record: 320 g/ha, scored visually after 3 weeks vs untreated controls. It counts as in vivo, Avena fatua. The gist of the method: as §2
Experiment [8] has as its system ECHCG. Nature of the experiment: Post-emergence herbicidal action against ECHCG. The experiment is classed as in vivo, Echinochloa crus-galli. The settings on record: 80 g/ha, visual assessment about 3 weeks after treatment vs untreated controls. The gist of the method: as §1
In experiment [9] the test system is DIGSA. Nature of the experiment: Post-emergence herbicidal action against DIGSA. Conditions: 80 g/ha, visual assessment about 3 weeks after treatment vs untreated controls. It counts as in vivo, Digitaria sanguinalis. The gist of the method: as §1
The subject of experiment [10] is VIOTR. Kind of experiment: Pre-emergence herbicidal action against VIOTR. It counts as in vivo, Viola tricolor. The settings on record: 320 g/ha. A digest of the protocol: as §2
The test system of experiment [11] is AMARE. Nature of the experiment: Pre-emergence herbicidal action against AMARE. It counts as in vivo, Amaranthus retroflexus. The settings on record: 320 g/ha. The gist of the method:
as §2

Experiment [12] has as its system ABUTH. Kind of experiment: Post-emergence herbicidal action against ABUTH. The experiment is classed as in vivo, Abutylon threophrasti. Conditions: 80 g/ha, visual assessment about 3 weeks after treatment vs untreated controls. A digest of the protocol:
as §1

Experiment [13] relates to DIGSA. Kind of experiment: Pre-emergence herbicidal action against DIGSA. The settings on record: 320 g/ha, scored visually after 3 weeks vs untreated controls. The experiment is classed as in vivo, Digitaria sanguinalis. The gist of the method: as §2
Experiment [14] concerns POLCO. Kind of experiment: Pre-emergence herbicidal action against POLCO. It counts as in vivo, Polygonum convolvulus. The settings on record: 320 g/ha. A digest of the protocol:
as §2

Experiment [15] relates to ALOMY. Nature of the experiment: Pre-emergence herbicidal action against ALOMY. The experiment is classed as in vivo, Alopecurus myosuroides. Conditions: 320 g/ha, scored visually after 3 weeks vs untreated controls. The gist of the method: as §2
The subject of experiment [16] is MATIN. Nature of the experiment: Pre-emergence herbicidal action against MATIN. The experiment is classed as in vivo. The settings on record: 320 g/ha. The gist of the method: as §2
Experiment [17] deals with LOLRI. Nature of the experiment: Pre-emergence herbicidal action against LOLRI (Table 8, titled post-emergence at 320 g/ha). The experiment is classed as in vivo, Lolium rigidum. Conditions: table stands in the pre-emergence section. A digest of the protocol:
as §2

With `CC#Cc1cc(Br)c(C2=C(OC(=O)OCC)[C@]3(CC[C@H](COCC)C3)NC2=O)c(OC)c1` (stereo in doubt) [Example P-13, [3-(2-Bromo-6-methoxy-4-prop-1-ynyl-phenyl)-8-(ethoxymethyl)-2-oxo-1-azaspiro[4.4]non-3-en-4-yl] ethyl carbonate], the “Post-emergence action against LOLRI in %” value in [1] was determined as 100%. Further, the “Pre-emergence action at 320 g/ha against PHBPU in %” value in [2] stood at 100%. Besides, the “Post-emergence action against ALOMY in %” value in [3] is recorded as 100%. Moreover, the “Post-emergence action against SETVI in %” value in [4] stood at 100%. Moreover, in experiment [5], the “Pre-emergence action against SETVI in %” value is recorded as 100%. Further, in experiment [6], the “Pre-emergence action against ECHCG in %” value was 100%. For the same compound, in experiment [7], the “Pre-emergence action against AVEFA in %” value was 100%. In experiment [8], the “Post-emergence action against ECHCG in %” value is listed as 100%. Moreover, the “Post-emergence action against DIGSA in %” value in experiment [9] is recorded as 100%. The “Pre-emergence action against VIOTR in %” value in experiment [10] was 100%. Also, the “Pre-emergence action against AMARE in %” value in experiment [11] was 90%. The “Post-emergence action against ABUTH in %” value in experiment [12] amounted to 80%. The “Pre-emergence action against DIGSA in %” value in experiment [13] was 100%. Also, the “Pre-emergence action against POLCO in %” value in experiment [14] was found to be 80%. Further, in [15], the “Pre-emergence action against ALOMY in %” value was determined as 100%. The “Pre-emergence action against MATIN in %” value in [16] is listed as 80%. Further, the “Pre-emergence herbicidal action against LOLRI in %” value in experiment [17] came to 100%.
